Molecular target: T1, OGA (Mus musculus, UniProt Q9EQQ9)
T1 construct: from tissue; host or cells: mouse brain (sagittal sections, forebrain area)
T1 sequence (Q9EQQ9 1-916): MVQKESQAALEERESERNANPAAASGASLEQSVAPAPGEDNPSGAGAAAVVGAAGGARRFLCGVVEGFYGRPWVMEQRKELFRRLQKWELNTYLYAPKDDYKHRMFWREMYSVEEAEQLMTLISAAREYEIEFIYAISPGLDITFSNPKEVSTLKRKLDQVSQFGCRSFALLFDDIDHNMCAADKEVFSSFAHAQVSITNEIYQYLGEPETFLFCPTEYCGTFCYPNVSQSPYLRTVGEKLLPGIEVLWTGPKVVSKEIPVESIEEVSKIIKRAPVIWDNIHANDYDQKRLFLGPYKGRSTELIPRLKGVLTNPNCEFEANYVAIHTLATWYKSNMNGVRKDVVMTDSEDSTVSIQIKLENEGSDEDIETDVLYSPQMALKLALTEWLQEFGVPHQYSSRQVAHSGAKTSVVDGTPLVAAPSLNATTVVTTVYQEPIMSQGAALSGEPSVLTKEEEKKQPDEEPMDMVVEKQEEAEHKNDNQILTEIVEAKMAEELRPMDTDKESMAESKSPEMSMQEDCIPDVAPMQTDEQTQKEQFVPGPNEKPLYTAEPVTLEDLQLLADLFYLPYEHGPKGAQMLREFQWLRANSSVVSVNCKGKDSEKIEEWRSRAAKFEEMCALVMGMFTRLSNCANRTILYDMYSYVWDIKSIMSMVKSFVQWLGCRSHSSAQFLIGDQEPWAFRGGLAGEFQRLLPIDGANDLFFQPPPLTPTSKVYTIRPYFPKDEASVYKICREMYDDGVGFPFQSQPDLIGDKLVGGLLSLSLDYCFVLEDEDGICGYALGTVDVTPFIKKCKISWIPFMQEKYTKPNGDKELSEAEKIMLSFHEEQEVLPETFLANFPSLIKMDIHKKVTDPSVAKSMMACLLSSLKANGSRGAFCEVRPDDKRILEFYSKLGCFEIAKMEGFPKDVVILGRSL
Test: Ex vivo OGA occupancy assay using [3H]-ligand (brain sections, autoradiography)
Type: in vivo
Details: po, Male NMRI or C57Bl6j mice, p.o., 24 h after administration, forebrain area, normalised to vehicle, read-out: Occupancy (% +/- sd)
Experimental: Male NMRI or C57Bl6j mice were treated by oral (p.o.) administration of vehicle or compound. Animals were sacrificed 24 hours after administration. Brains were immediately removed from the skull, hemispheres were separated and the right hemisphere, for ex vivo OGA occupancy assay, was rapidly frozen in dry-ice cooled 2-methylbutane (−40° C.). Twenty […]m-thick sagittal sections were cut using a Leica CM 3050 cryostat-microtome (Leica, Belgium), thaw-mounted on microscope slides (SuperFrost Plus Slides, Thermo Fisher Scientific) and stored at −20° C. until use. After thawing, sections were dried under a cold stream of air. The sections were not washed prior to incubation. The 10 minutes incubation with 3 nM [^3H]-ligand was rigorously controlled. All brain sections (from compound-treated and vehicle-treated animals) were incubated in parallel. After incubation, the excess of [^3H]-ligand was washed off in ice-cold buffer (PBS 1× and 1% BSA) 2 times 10 minutes, followed by a quick dip in distilled water. The sections were then dried under a stream of cold air.
Radioactivity in the forebrain area of brain slices was measured using a β-imager with M3 vision analysis software (Biospace Lab, Paris). Specific binding was calculated as the difference between total binding and non-specific binding measured in Thiamet-G (10 μM) treated sections. […]

Work on `Cc1cc(C2CCCN(C(C)c3ccc4sc(C)nc4n3)C2)cc(C)n1` (racemic) [Compound 39] yielded a receptor occupancy at 25 mg/kg of 3.33%.
